According to patent US10323229B1, “Three-dimensional human stem cell-derived cortical spheroid model” (The Florida State University Research Foundation, Inc., priority 2015, dated 2019):

Tests used:
[1] = tested on: neuronal cells derived from hiPSK3 cells; experiment: MMP-2/-9 inhibitor effects: neurite density, MTT, cell counting; assay type: cell-based, human; conditions: phase contrast, 1 μM
Experimental: Derived neural cells, as described above, were replated onto Geltrex-coated 96-well plate and treated with MMP inhibitors: ARP 100 (MMP-2 inhibitor), MMP-9 inhibitor I, or SB-3CT (MMP-2 and MMP-9 inhibitor) (all from Santa Cruz) at 1 μM.
The cells were then characterized by MTT, reactive oxygen species (ROS), and poly caspase assays. For some experiments, cell numbers were counted using hemocytometer after trypsin/EDTA dissociation.
Briefly, the replated neural cells were incubated with 5 mg/mL 3-(4,5-Dimethylthiazol-2-yl)-2,5-diphenyltetrazolium bromide (MTT, Sigma) solution. The absorbance was measured at 500 nm using a microplate reader (Biorad, Richmond, Calif.). Image-iT™ Live Green Reactive Oxygen Species Detection kit (Molecular Probes) was used to detect the intracellular ROS. Briefly, neural cells were seeded at 1×10^5/mL in 96-well plates (100 μL). After 3 days, the cells were rinsed with Hank's balanced salt solution and incubated with 25 μM carboxy-H2DCFDA for 30 min at 37° C. The samples were washed and measured under a fluorescence microplate reader using 488 nm excitation wavelength and 530 nm for emission (Bio-Tek, FLx800, Winoosk, Vt.). […] The replated cells were incubated for one hour with the fluorescent inhibitor of caspases reagent and analyzed by a fluorescence microplate reader.

[2] = tested on: hiPSC-derived neural cells; experiment: Carbenoxolone neuroprotection from NMDA-induced neurotoxicity (MTT, ROS, poly caspase); assay type: cell-based, human
Experimental: (§1) The hiPSC-derived neural cells were tested to determine response to different drugs and small molecules. Neural cells were formed as described in Example 2. After differentiation, the derived neural cells were replated onto Geltrex-coated 96-well plate and treated with N-methyl-D-aspartate (NMDA) at 0, 0.05, 0.5, 1 mM to mimic general neural toxicity. Cells were tested to determine response to neural protective molecules. Carbenoxolone (Cx, Sigma) (Beraki, et al., A pharmacological screening approach for discovery of neuroprotective compounds in ischemic stroke, PLoS One, 8 (2013) e69233) was added at different doses (0, 10 µM, 50 µM) of Cx were added with 0.5 mM NMDA for the first 24 h. Then samples were washed with phosphate buffer and the same doses of Cx were added for another 24 h. The cells were then characterized by MTT, reactive oxygen species (ROS), and poly caspase assays.
(§2) Briefly, the replated neural cells were incubated with 5 mg/mL 3-(4,5-Dimethylthiazol-2-yl)-2,5-diphenyltetrazolium bromide (MTT, Sigma) solution. The absorbance was measured at 500 nm using a microplate reader (Biorad, Richmond, Calif.). Image-iT™ Live Green Reactive Oxygen Species Detection kit (Molecular Probes) was used to detect the intracellular ROS. Briefly, neural cells were seeded at 1×10^5/mL in 96-well plates (100 μL). After 3 days, the cells were rinsed with Hank's balanced salt solution and incubated with 25 μM carboxy-H2DCFDA for 30 min at 37° C. The samples were washed and measured under a fluorescence microplate reader using 488 nm excitation wavelength and 530 nm for emission (Bio-Tek, FLx800, Winoosk, Vt.). Image-iT™ Live Green Poly Caspase Detection kit (Molecular Probes) was used to detect the expression of caspases. The replated cells were incubated for one hour with the fluorescent inhibitor of caspases reagent and analyzed by a fluorescence microplate reader.

[3] = tested on: hiPSC-derived neural cells; experiment: NMDA-induced neurotoxicity (MTT, ROS, poly caspase); assay type: cell-based, human
Experimental: as §1, §2

hiPSK3-derived EBs = experiment: Neural patterning, immunocytochemistry marker quantification; assay type: cell-based, human; conditions: day 42 cells, CHIR 3 μM added to purmorphamine/FGF-2/RA
Experimental: Cells were analyzed using phase contrast microscopy, as described in Example 1 or immunohistochemistry. […] After washing, the cells were incubated with the corresponding secondary antibody: Alexa Fluor® 488 goat anti-Mouse IgG, Alexa Fluor® 488 or 594 goat anti-Rabbit IgG, or Alexa Fluor® 594 donkey anti-goat IgG (Life Technologies). The samples were stained with Hoechst 33342 and visualized under a fluorescent microscope (Olympus IX70, Melville, N.Y.). The images from five independent fields (800-1000 cells) were analyzed using ImageJ software. The proportion of positive cells was calculated based on the intensity of marker of interest normalized to the nuclear intensity, indicating the relative expression among different conditions. A neuronal model was prepared using LDN/SB induction, as discussed in Example 2. Neural patterning of hiPSCs was tuned through treatment with cyclopamine (the antagonist of SHH signaling) or purmorphamine (the agonist of SHH signaling) (Stanton & Peng, Small-molecule modulators of the Sonic Hedgehog signaling pathway, Mol Biosyst, 6 (2010) 44-54). […] After 8 days, the cells were treated with different growth factor combinations: […] (3) FGF-2 (10 ng/mL) and cyclopamine (1 μM, Sigma). […]

[4] = tested on: neural cells derived from human iPSK3 cells; experiment: Aβ1-42 oligomer-induced response in presence of GSK-3β inhibitor CHIR99021 (MTT, ROS, caspase); assay type: cell-based; conditions: CH 10 μM with 1 μM Aβ1-42 oligomers, day 46 cells
Excerpt: The cells were subsequently characterized by MTT, ROS, and poly caspase assays (Yan, et al., Cryopreservation of embryonic stem cell-derived multicellular neural aggregates labeled with micron-sized particles of iron oxide for magnetic resonance imaging, Biotechnol Prog, 31 (2015) 510-521; Sart, et al., The microenvironment of embryoid bodies modulated the commitment to neural lineage post-cryopreservation, Tissue Eng Part C: Methods., 21 (2015) 356-366). To evaluate the influence of glycogen synthase kinase (GSK)-3p inhibitor, CHIR99021 (1 or 10 μM) was added to the cultures treated with 1 μM Aβ1-42 oligomers for three days and characterized.
as §2

O=S(=O)(CC1CS1)c1ccc(Oc2ccccc2)cc1 (stereo not drawn) [SB-3CT]
neurite density ([1]; Cyclo group (more cortical glutamatergic neurons)): little changes
neurite density ([1]; Purmo group (more motor neurons)): reduction of neurite density

CC1(C)[C@@H](OC(=O)CCC(=O)O)CC[C@]2(C)[C@H]3C(=O)C=C4[C@@H]5C[C@@](C)(C(=O)O)CC[C@]5(C)CC[C@@]4(C)[C@]3(C)CC[C@@H]12 [carbenoxolone, Carbenoxolone]
increase in MTT activity ([2]; carbenoxolone 10 or 50 μM with 0.5 mM NMDA): 28-56%
expression of ROS ([2]; carbenoxolone with 0.5 mM NMDA): reduced expression of ROS
caspase activity ([2]; carbenoxolone with 0.5 mM NMDA, all three groups): decreased

CN[C@H](CC(=O)O)C(=O)O [NMDA, N-methyl-D-aspartate]
caspase activity ([3]; NMDA 0-1 mM): logarithmic relationship with NMDA concentration
expression of ROS ([3]; NMDA 0-1 mM): increased logarithmically
reduction of MTT activity ([3]; NMDA 0.5 or 1 mM, all three groups (control, Purmo, Cyclo)): 30-50%

Cc1c[nH]c(-c2cnc(NCCNc3ccc(C#N)cn3)nc2-c2ccc(Cl)cc2Cl)n1 [CHIR99021]
expression of ISL1 and HB9 (motor neuron differentiation) (hiPSK3-derived EBs): increased
ROS levels [4]: reduced
caspase levels [4]: reduced
increase of MTT activity ([4]; vs. groups without CH or with 1 μM CH): 25-45%
